From PMC7318222, “A Family of Water‐Immiscible, Dipolar Aprotic, Diamide Solvents from Succinic Acid” (Chemsuschem, 2020)

Key:
AhR = molecular target: T1, AhR (Homo sapiens, UniProt P35869); assay: AhR CALUX reporter gene assay; assay type: cell-based; set-up: key: –: no effect observed up to the highest test concentration; details: PC10, 24 h exposure
T1 construct: expression construct for the full-length human receptor under investigation; expressed in transfected cells; host or cells: human U2-OS cells (ATCC HTB-96), stably transfected
T1 sequence (P35869 11-848): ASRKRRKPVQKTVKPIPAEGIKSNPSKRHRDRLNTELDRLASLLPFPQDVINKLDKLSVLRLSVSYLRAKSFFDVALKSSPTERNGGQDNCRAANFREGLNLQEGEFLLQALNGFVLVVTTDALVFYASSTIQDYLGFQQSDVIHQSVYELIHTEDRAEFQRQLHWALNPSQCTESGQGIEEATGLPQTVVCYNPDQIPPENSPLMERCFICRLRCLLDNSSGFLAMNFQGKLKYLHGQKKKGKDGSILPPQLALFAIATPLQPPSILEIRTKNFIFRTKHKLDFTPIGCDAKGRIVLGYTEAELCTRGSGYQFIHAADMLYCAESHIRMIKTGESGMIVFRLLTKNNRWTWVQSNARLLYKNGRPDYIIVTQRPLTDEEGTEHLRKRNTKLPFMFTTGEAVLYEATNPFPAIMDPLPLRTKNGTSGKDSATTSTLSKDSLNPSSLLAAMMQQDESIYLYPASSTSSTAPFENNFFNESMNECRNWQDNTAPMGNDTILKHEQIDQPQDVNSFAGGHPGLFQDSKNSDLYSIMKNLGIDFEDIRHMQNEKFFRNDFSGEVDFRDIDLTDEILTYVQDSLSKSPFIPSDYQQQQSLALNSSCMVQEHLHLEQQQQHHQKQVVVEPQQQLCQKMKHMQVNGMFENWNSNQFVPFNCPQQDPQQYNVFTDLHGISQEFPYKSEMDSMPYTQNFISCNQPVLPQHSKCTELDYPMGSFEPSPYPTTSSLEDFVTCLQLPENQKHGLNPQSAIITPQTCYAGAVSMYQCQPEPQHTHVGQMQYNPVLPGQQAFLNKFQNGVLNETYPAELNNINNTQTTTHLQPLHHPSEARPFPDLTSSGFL
Text: (§1) 2-methylimidazole 99.0%, zinc(II) nitrate hexahydrate ≥99.0%, para-cymene 99.0%, 1,4-dioxane 99.8% (anhydrous), 4-nitroaniline ≥99.0%, 1-octanol ≥99.0%, diglyme ≥99.0%, DMSO-d6 (99.8% D) and chloroform-d (99.8% D) were purchased from Sigma-Aldrich. Toluene ≥99.0%, hexane ≥99.5%, DCM ≥99.5%, chloroform ≥99.5%, DMSO ≥99.0% were purchased from VWR. N,N-diethyl-4-nitroaniline ≥98.0% was purchased from Alfa Aeser. Cyrene was supplied by Circa group. N-butylpyrrolidinone was supplied by Eastman chemicals. N,N-dimethylformamide 99.9% and N,N-dimethylacetamide 99.9% were purchased from Fischer. The flakes of Ultrason® E3020 P Polyarylethersulfone of 55,000 Da were obtained from INGE.BASF, Germany. The CALUX cell lines have been described previously.[1] They are based on human U2-OS cells (ATCC, HTB-96) stably transfected with an expression construct for the full-length human receptor under investigation, and a reporter construct consisting of multimerized responsive elements for the cognate receptor coupled to a minimal promoter element (TATA) and a luciferase gene. Cells were maintained as described previously,[2] using cell culture media and supplements from Fisher Scientific as described in the experimental procedures section. […]
(§2) In vitro reporter gene assays
(§3) The automated CALUX assays were carried out similarly as described earlier,[12] with some adaptations. In brief, the assay was performed in CO2 independent medium (Fisher Scientific, […]
(§4) supplement (Fisher Scientific, 11574466), 10 U/mL penicillin and 10 µg/mL streptomycin. A cell suspension in assay medium was made of 1 × 10^5cells/mL, and white 384-wells plates were seeded with 30 µl cell suspension/well. After 24 h, exposure medium was prepared. A dilution series in 0.5log unit increments of each test compound (in DMSO) was added to a 96-wells plate containing assay medium (2% v/v). Of this exposure mixture, 30 µl was added to the assay plates containing the CALUX cells, resulting in a final DMSO concentration of 1%. Additionally, DMSO blanks and a full dose response curve of the relevant reference compound were included on each plate. All samples were tested in triplicate. The preparation of the compound dilution series as well as the exposure of the cells were performed on a Hamilton StarLET liquid handling robot coupled to a Cytomat incubator.
(§5) Directly after exposure, plates were sealed with non-breathing plate seals (Plate sealer, easy seal transparent; Greiner-Bio-One, 676001). After 24 h the exposure medium was removed using an EL406 washer-dispenser (BioTek) and 10 µl/well triton lysisbuffer was added by the EL406.
(§6) Subsequently, the luciferase signal was measured in a luminometer (InfinitePro coupled to a Connect Stacker, both TECAN). In order to be able to detect receptor antagonism, several assays were also performed in antagonistic mode. […]
(§7) The luminometer data was analysed as follows; the average of the triplicate wells was determined, and the average blank (DMSO) value was subtracted. […] For antagonist- and cytotoxicity experiments, PC20 values were determined instead, which was defined as the concentration where the test compound causes a 20% decrease in the basal signal, which was […]
(§8) curve, the signal induction above background (DMSO) was determined, and the concentration where the compound elicited a 1.5-fold increase above background was used as LEC.

TRβ = molecular target: T2, TRβ (Homo sapiens, UniProt P10828); assay: TRβ CALUX reporter gene assay; assay type: cell-based; set-up: key: –: no effect observed up to the highest test concentration; details: PC10, 24 h exposure
T2 construct: expression construct for the full-length human receptor under investigation; expressed in transfected cells; host or cells: human U2-OS cells (ATCC HTB-96), stably transfected
T2 sequence (P10828 1-461): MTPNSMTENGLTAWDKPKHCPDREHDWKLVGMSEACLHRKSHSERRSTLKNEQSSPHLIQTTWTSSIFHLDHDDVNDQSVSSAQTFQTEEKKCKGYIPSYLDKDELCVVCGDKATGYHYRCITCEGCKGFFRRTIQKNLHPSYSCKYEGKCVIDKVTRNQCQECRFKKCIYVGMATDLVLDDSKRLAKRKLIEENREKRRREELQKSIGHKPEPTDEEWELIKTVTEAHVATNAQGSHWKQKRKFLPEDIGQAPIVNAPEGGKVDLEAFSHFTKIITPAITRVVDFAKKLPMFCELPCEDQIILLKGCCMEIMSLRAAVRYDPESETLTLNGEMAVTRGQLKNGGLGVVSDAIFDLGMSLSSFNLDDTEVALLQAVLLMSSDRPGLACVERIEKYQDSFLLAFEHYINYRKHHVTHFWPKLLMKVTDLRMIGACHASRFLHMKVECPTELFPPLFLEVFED
Text: as §1, §2, §3, §4, §5, §6, §7, §8

| Compound | LEC AhR (AhR) | LEC TRβ (TRβ) |
| --- | --- | --- |
| CN1CCCC1=O [NMP, N‐methyl‐2‐pyrrolidone, reference compound] | −2.0 Log M | – |
| CCCCN(C)C(=O)CCC(=O)N(C)CCCC [MBSA, N,N′‐dimethyl‐N,N′‐dibutylsuccindiamide] | – | – |
| CCCCN1CCCC1=O [NBP, N‐Butylpyrrolidinone, reference compound] | – | – |

Further lines, results first:

| LEC AhR (AhR) | LEC TRβ (TRβ) | Compound |
| --- | --- | --- |
| – | – | CCCCN(CC)C(=O)CCC(=O)N(CC)CCCC [EBSA, N,N′‐diethyl‐N,N′‐dibutylsuccindiamide] |
| – | – | CCCCN(CCCC)C(=O)CCC(=O)N(CCCC)CCCC [TBSA, N,N,N′,N′‐tetrabutylsuccindiamide] |
